# Results from US7642245B2, “Antibacterial compounds having a (pyrrole carboxamide)-(benzamide)-(imidazole carboxamide) motif” (Oscient Pharmaceuticals Corporation, priority 2002, dated 2010).
# Legend:
# [1] = test system: E. coli ATCC 25922; experiment: MIC, NCCLS broth microdilution; assay type: cell-based, Escherichia coli; settings: G = E. coli ATCC 25922
# Excerpt: (§1) In vitro biological activity data were collected for a variety of microorganisms, including Staphylococcus aureus (ATCC 27660, a methicillin resistant strain (MRSA); ATCC 13709, a methicillin sensitive strain (MSSA)), Enterococcus faecalis (ATCC 29212), Bacillus cereus (ATCC 11778), Streptococcus pneumoniae (ATCC 49619), Candida albicans (ATCC 38247), Escherichia coli (ATCC 25922), and Moraxella (now Branhamella) catarrhalis (ATCC 25238).
# (§2) The minimal inhibition concentration (MIC) of these compounds was determined using the National Committee for Clinical Laboratory Standards (NCCLS) broth microdilution assay in microtiter plates, as set forth in: (1) the guidelines of the National Committee for Clinical Laboratory Standards (NCCLS) Document M7-A4 (NCCLS, 1997); (2) the guidelines of the National Committee for Clinical Laboratory Standards (NCCLS) Document M11-A4 (NCCLS, 1997); and (3) the guidelines and reference method of the National Committee for Clinical Laboratory Standards (NCCLS) Document M27-T (NCCLS, 1995). For antifungal assays, the method recommended in Murray, P R., 1995 Manual of Clinical Microbiology (ASM Press, Washington, DC.), was employed.
# [2] = test system: E. faecalis ATCC 29212; experiment: MIC, NCCLS broth microdilution; assay type: cell-based, Enterococcus faecalis; settings: C = E. faecalis ATCC 29212
# Excerpt: as §1, §2
# [3] = test system: B. cereus ATCC 11778; experiment: MIC, NCCLS broth microdilution; assay type: cell-based, Bacillus cereus; settings: D = B. cereus ATCC 11778
# Excerpt: as §1, §2
# [4] = test system: S. pneumoniae ATCC 49619; experiment: MIC, NCCLS broth microdilution; assay type: cell-based, Streptococcus pneumoniae; settings: E = S. pneumoniae ATCC 49619
# Excerpt: as §1, §2
# [5] = test system: S. aureus ATCC 27660; experiment: MIC, NCCLS broth microdilution; assay type: cell-based, Staphylococcus aureus; settings: B = S. aureus ATCC 27660 (MRSA)
# Excerpt: as §1, §2
# [6] = test system: S. aureus ATCC 13709; experiment: MIC, NCCLS broth microdilution; assay type: cell-based, Staphylococcus aureus; settings: A = S. aureus ATCC 13709 (MSSA)
# Excerpt: as §1, §2
# [7] = test system: C. albicans ATCC 38247; experiment: MIC, antifungal assay; assay type: cell-based, Candida albicans; settings: F = C. albicans ATCC 38247
# Excerpt: as §1, §2
# [8] = test system: M. catarrhalis (ATCC 25238); experiment: MIC, NCCLS broth microdilution; assay type: cell-based, Moraxella (now Branhamella) catarrhalis; settings: H = M. catarrhalis (ATCC 25238)
# Excerpt: as §1, §2
SMILES,Minimum Inhibitory Concentration (MIC) [1],Minimum Inhibitory Concentration (MIC) [2],Minimum Inhibitory Concentration (MIC) [3],Minimum Inhibitory Concentration (MIC) [4],Minimum Inhibitory Concentration (MIC) [5],Minimum Inhibitory Concentration (MIC) [6],Minimum Inhibitory Concentration (MIC) [7],Minimum Inhibitory Concentration (MIC) [8]
Cn1cc(NC(=O)c2cc3ccccc3cn2)cc1C(=O)Nc1ccc(C(=O)Nc2cn(C)c(C(=O)NCCN3CCCC(O)C3)n2)cc1 (racemic) [Compound A-69],>32 µg/mL,+++ (MIC ≦ 4 μg/mL),+++ (MIC ≦ 4 μg/mL),+++ (MIC ≦ 4 μg/mL),+++ (MIC ≦ 4 μg/mL),+++ (MIC ≦ 4 μg/mL),>32 µg/mL,+++ (MIC ≦ 4 μg/mL)
Cn1cc(NC(=O)c2cc3ccccc3cn2)cc1C(=O)Nc1ccc(C(=O)Nc2cn(C)c(C(=O)NCCN3CCCCC3)n2)cc1 [Compound A-17],+++ (MIC ≦ 4 μg/mL),+++ (MIC ≦ 4 μg/mL),+++ (MIC ≦ 4 μg/mL),+++ (MIC ≦ 4 μg/mL),+++ (MIC ≦ 4 μg/mL),+++ (MIC ≦ 4 μg/mL),+ (12 ≦ MIC ≦ 32 μg/mL),+++ (MIC ≦ 4 μg/mL)
Cn1cc(NC(=O)c2ccc(Cl)cc2F)cc1C(=O)Nc1ccc(C(=O)Nc2cn(C)c(C(=O)NCCN3CCC(O)CC3)n2)cc1 [Compound A-4],++ (4 < MIC < 12 μg/mL),+++ (MIC ≦ 4 μg/mL),+++ (MIC ≦ 4 μg/mL),+++ (MIC ≦ 4 μg/mL),+++ (MIC ≦ 4 μg/mL),+++ (MIC ≦ 4 μg/mL),+ (12 ≦ MIC ≦ 32 μg/mL),+++ (MIC ≦ 4 μg/mL)
COCCN(C)CCNC(=O)c1nc(NC(=O)c2ccc(NC(=O)c3cc(NC(=O)c4cc5ccccc5cn4)cn3C)cc2)cn1C [Compound A-29],++ (4 < MIC < 12 μg/mL),+++ (MIC ≦ 4 μg/mL),+++ (MIC ≦ 4 μg/mL),+++ (MIC ≦ 4 μg/mL),+++ (MIC ≦ 4 μg/mL),+++ (MIC ≦ 4 μg/mL),+ (12 ≦ MIC ≦ 32 μg/mL),+++ (MIC ≦ 4 μg/mL)
Cn1cc(NC(=O)c2cc3c(N)cccc3cn2)cc1C(=O)Nc1ccc(C(=O)Nc2cn(C)c(C(=O)NCCN3CCC(O)CC3)n2)cc1 [Compound A-8],++ (4 < MIC < 12 μg/mL),+++ (MIC ≦ 4 μg/mL),+++ (MIC ≦ 4 μg/mL),+++ (MIC ≦ 4 μg/mL),+++ (MIC ≦ 4 μg/mL),+++ (MIC ≦ 4 μg/mL),++ (4 < MIC < 12 μg/mL),++ (4 < MIC < 12 μg/mL)
Cn1cc(NC(=O)c2cc3ccccc3cn2)cc1C(=O)Nc1ccc(C(=O)Nc2cn(C)c(C(=O)NCCN3CCCC(O)C3)n2)cc1 (stereo not drawn) [Compound A-72],>32 µg/mL,+++ (MIC ≦ 4 μg/mL),+++ (MIC ≦ 4 μg/mL),+++ (MIC ≦ 4 μg/mL),+++ (MIC ≦ 4 μg/mL),+++ (MIC ≦ 4 μg/mL),>32 µg/mL,+++ (MIC ≦ 4 μg/mL)
Cn1cc(NC(=O)c2cc3ccccc3cn2)cc1C(=O)Nc1ccc(C(=O)Nc2cn(C)c(C(=O)NCCNCC3CC3)n2)cc1 [Compound A-34],+++ (MIC ≦ 4 μg/mL),+++ (MIC ≦ 4 μg/mL),+++ (MIC ≦ 4 μg/mL),+++ (MIC ≦ 4 μg/mL),+++ (MIC ≦ 4 μg/mL),+++ (MIC ≦ 4 μg/mL),>32 µg/mL,+++ (MIC ≦ 4 μg/mL)
Cn1cc(NC(=O)c2cc3ccccc3cn2)cc1C(=O)Nc1ccc(C(=O)Nc2cn(C)c(C(=O)NCCN3CCC(OC(=O)CN)CC3)n2)cc1 [Compound A-67],+ (12 ≦ MIC ≦ 32 μg/mL),+++ (MIC ≦ 4 μg/mL),+++ (MIC ≦ 4 μg/mL),+++ (MIC ≦ 4 μg/mL),+++ (MIC ≦ 4 μg/mL),+++ (MIC ≦ 4 μg/mL),++ (4 < MIC < 12 μg/mL),+++ (MIC ≦ 4 μg/mL)
Cn1cc(NC(=O)c2cc3ccccc3cn2)cc1C(=O)Nc1ccc(C(=O)Nc2cn(C)c(C(=O)NCCNCCCO)n2)cc1 [Compound A-43],>32 µg/mL,+++ (MIC ≦ 4 μg/mL),+++ (MIC ≦ 4 μg/mL),+++ (MIC ≦ 4 μg/mL),+++ (MIC ≦ 4 μg/mL),+++ (MIC ≦ 4 μg/mL),>32 µg/mL,>32 µg/mL
Cn1cc(NC(=O)c2cccc(F)n2)cc1C(=O)Nc1ccc(C(=O)Nc2cn(C)c(C(=O)NCCN3CCC(O)CC3)n2)cc1 [Compound A-2],>32 µg/mL,+++ (MIC ≦ 4 μg/mL),+++ (MIC ≦ 4 μg/mL),+++ (MIC ≦ 4 μg/mL),+++ (MIC ≦ 4 μg/mL),+++ (MIC ≦ 4 μg/mL),>32 µg/mL,+ (12 ≦ MIC ≦ 32 μg/mL)
CCN(CCNC(=O)c1nc(NC(=O)c2ccc(NC(=O)c3cc(NC(=O)c4cc5ccccc5cn4)cn3C)cc2)cn1C)CCOC [Compound A-21],>32 µg/mL,+++ (MIC ≦ 4 μg/mL),+++ (MIC ≦ 4 μg/mL),+++ (MIC ≦ 4 μg/mL),+++ (MIC ≦ 4 μg/mL),+++ (MIC ≦ 4 μg/mL),>32 µg/mL,+++ (MIC ≦ 4 μg/mL)
COCCN(CCNC(=O)c1nc(NC(=O)c2ccc(NC(=O)c3cc(NC(=O)c4cc5ccccc5cn4)cn3C)cc2)cn1C)CCOC [Compound A-22],>32 µg/mL,+++ (MIC ≦ 4 μg/mL),+++ (MIC ≦ 4 μg/mL),+++ (MIC ≦ 4 μg/mL),+++ (MIC ≦ 4 μg/mL),+++ (MIC ≦ 4 μg/mL),>32 µg/mL,+++ (MIC ≦ 4 μg/mL)
